Source: US7612064B2, “Sulfopyrroles” (Takeda Pharmaceutical Company Limited, priority 2003, dated 2009)

What was measured:
[1] = Hoechst 33342 nuclear staining; type: cell-based; conditions: for Hoechst 33342 nuclear staining score, HeLa: HeLa cells; for Hoechst 33342 nuclear staining score, Jurkat: Jurkat cells; for Hoechst 33342 nuclear staining score, H460: H460 cells; for Hoechst 33342 nuclear staining score, Jily: Jily cells; for Hoechst 33342 nuclear staining score, MRC5: MRC5 cells;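 on all read-outs here: apoptotic nuclei scored 0 none 1 weak under 50% of cells 2 strong over 50% of cells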
Description: This assay is performed in 96 well tissue culture plates. Appropriate number of cells (adherent cells: 3-5*10^3, suspension cells: 8-10*10^3) are being seeded out in 80 μl complete medium. Adherent cells are incubated for 24 h for proper spreading out before addition of test compounds while suspension cells are immediately treated with test compounds after seeding out. The test compounds are added in 20 μl complete medium containing max 5% DMSO. […] […] The assay plates are then further incubated for 30 min and subsequently analyzed with a standard inverted fluorescence microscope.
The readout allows the determination of the fraction of apoptotic nuclei as well as other morphological criteria specific for apoptosis as a function of the treatment. The following scores are used: 0 relating to no activity, 1 relating to weak activity comprising less than 50% of the cells and score 2 relating to strong activity comprising more than 50% of the cells.

HeLa = assay: MTS proliferation assay; type: cell-based, human; conditions: 72 h
Description: (§1) The assay is performed in 96 well tissue culture plates. […] The test compounds are added in 20 μl complete medium containing max 5% DMSO. The final compound concentrations in the assays are 10 μM, 3 μM, 1 μM and 0.3 μM, respectively. The assay plates are incubated for 72 h at culture conditions. The MTS reagent is prepared according to the manufacturer's protocol (Promega G1111). 20 μl MTS reagent are added to each well, the assay plates are quickly spun and incubated for another 3 h at culture conditions. Subsequently, the plates are shortly shacked and absorption measured with a microplate-reader at 492 nm.

MRC5 = assay: MTS proliferation assay; type: cell-based; conditions: MRC5, 72 h
Description: as §1

Jurkat = assay: MTS proliferation assay; type: cell-based, human; conditions: 72 h
Description: as §1

[2] = conc 0.1 (final concentrations in μM), 24 h or 48 h incubation
[3] = conc 0.3 (final concentrations in μM), 24 h or 48 h incubation
[4] = conc 1 (final concentrations in μM), 24 h or 48 h incubation
[5] = conc 3 (final concentrations in μM), 24 h or 48 h incubation
[6] = conc 10 (final concentrations in μM), 24 h or 48 h incubation

For `Cc1ccc(S(=O)(=O)n2cc(CNCCCN3CCN(C)CC3)cc2-c2ccc3c(c2)OCO3)cc1.Cl.Cl` [Example 13], the “Hoechst 33342 nuclear staining score, HeLa” value [1, 2] was 0, the “Hoechst 33342 nuclear staining score, HeLa” value [1, 3] was 0 and the “Hoechst 33342 nuclear staining score, HeLa” value [1, 4] was 0. The “Hoechst 33342 nuclear staining score, HeLa” value [1, 5] was 0, the “Hoechst 33342 nuclear staining score, Jurkat” value [1, 2] was 0 and the “Hoechst 33342 nuclear staining score, Jurkat” value [1, 3] was 0. For the same compound, the “Hoechst 33342 nuclear staining score, Jurkat” value [1, 4] was 0 and the “Hoechst 33342 nuclear staining score, Jurkat” value [1, 5] was 0.

With `Cc1ccc(S(=O)(=O)n2cc(CNc3ccc(CN4CCOCC4)cc3)cc2-c2ccc3c(c2)OCO3)cc1` [Example 41] the IC50 (HeLa) was > 1 µM, the IC50 (MRC5) was > 1 µM and the “Hoechst 33342 nuclear staining score, HeLa” value [1, 3] was 0. The “Hoechst 33342 nuclear staining score, HeLa” value [1, 4] was 0, the “Hoechst 33342 nuclear staining score, HeLa” value [1, 5] was 0 and the “Hoechst 33342 nuclear staining score, HeLa” value [1, 6] was 0. For the same compound, the “Hoechst 33342 nuclear staining score, Jurkat” value [1, 3] was 0, the “Hoechst 33342 nuclear staining score, Jurkat” value [1, 4] was 0 and the “Hoechst 33342 nuclear staining score, Jurkat” value [1, 5] was 0. The “Hoechst 33342 nuclear staining score, Jurkat” value [1, 6] was 0.

In the case of `Cc1ccc(S(=O)(=O)n2cc(CNCCc3ccccc3)cc2-c2ccc3c(c2)OCO3)cc1` [Example 43], the IC50 (HeLa) is reported as > 1 µM, the IC50 (MRC5) is reported as > 1 µM and the “Hoechst 33342 nuclear staining score, HeLa” value [1, 3] is reported as 0. For the same compound, the “Hoechst 33342 nuclear staining score, HeLa” value [1, 4] was 0, the “Hoechst 33342 nuclear staining score, HeLa” value [1, 5] was 0 and the “Hoechst 33342 nuclear staining score, HeLa” value [1, 6] was 0. For the same compound, the “Hoechst 33342 nuclear staining score, Jurkat” value [1, 3] was 0, the “Hoechst 33342 nuclear staining score, Jurkat” value [1, 4] was 0 and the “Hoechst 33342 nuclear staining score, Jurkat” value [1, 5] was 0. For the same compound, the “Hoechst 33342 nuclear staining score, Jurkat” value [1, 6] was 0.

In the case of `Cc1ccc(S(=O)(=O)n2cc(CNc3ccccn3)cc2-c2ccc3c(c2)OCO3)cc1` [Example 44], the IC50 (HeLa) is reported as > 1 µM, the IC50 (MRC5) is reported as > 1 µM and the “Hoechst 33342 nuclear staining score, HeLa” value [1, 3] is reported as 0. The “Hoechst 33342 nuclear staining score, HeLa” value [1, 4] was 0, the “Hoechst 33342 nuclear staining score, HeLa” value [1, 5] was 0 and the “Hoechst 33342 nuclear staining score, HeLa” value [1, 6] was 2 (strong activity comprising more than 50% of the cells). The “Hoechst 33342 nuclear staining score, Jurkat” value [1, 3] was 0, the “Hoechst 33342 nuclear staining score, Jurkat” value [1, 4] was 0 and the “Hoechst 33342 nuclear staining score, Jurkat” value [1, 5] was 0. The “Hoechst 33342 nuclear staining score, Jurkat” value [1, 6] was 2 (strong activity comprising more than 50% of the cells).

For `Cc1ccc(S(=O)(=O)n2cc(CNc3ccc(S(N)(=O)=O)cc3)cc2-c2ccc3c(c2)OCO3)cc1` [Example 45], the IC50 (HeLa) was > 1 µM, the IC50 (MRC5) was > 1 µM and the “Hoechst 33342 nuclear staining score, HeLa” value [1, 3] was 0. The “Hoechst 33342 nuclear staining score, HeLa” value [1, 4] was 0, the “Hoechst 33342 nuclear staining score, HeLa” value [1, 5] was 0 and the “Hoechst 33342 nuclear staining score, HeLa” value [1, 6] was 1 (weak activity comprising less than 50% of the cells). The “Hoechst 33342 nuclear staining score, Jurkat” value [1, 3] was 0, the “Hoechst 33342 nuclear staining score, Jurkat” value [1, 4] was 0 and the “Hoechst 33342 nuclear staining score, Jurkat” value [1, 5] was 0. The “Hoechst 33342 nuclear staining score, Jurkat” value [1, 6] was 2 (strong activity comprising more than 50% of the cells).

With `Cc1ccc(S(=O)(=O)n2cc(-c3ccc(C(N)=O)cc3)cc2-c2ccc3c(c2)OCO3)cc1` [Example 47] the IC50 (HeLa) was > 1 µM, the IC50 (Jurkat) was > 1 µM and the “Hoechst 33342 nuclear staining score, HeLa” value [1, 2] was 0. For the same compound, the “Hoechst 33342 nuclear staining score, HeLa” value [1, 3] was 0, the “Hoechst 33342 nuclear staining score, HeLa” value [1, 4] was 2 (strong activity comprising more than 50% of the cells) and the “Hoechst 33342 nuclear staining score, HeLa” value [1, 5] was 2 (strong activity comprising more than 50% of the cells). The “Hoechst 33342 nuclear staining score, Jurkat” value [1, 2] was 0, the “Hoechst 33342 nuclear staining score, Jurkat” value [1, 3] was 0 and the “Hoechst 33342 nuclear staining score, Jurkat” value [1, 4] was 0. For the same compound, the “Hoechst 33342 nuclear staining score, Jurkat” value [1, 5] was 0.

In the case of `COc1cc(-c2cc(-c3cncc(CN(C)C)c3)cn2S(=O)(=O)c2ccc(C)cc2)cc(OC)c1OC` [Example 59], the IC50 (HeLa) is reported as > 1 µM, the IC50 (MRC5) is reported as > 1 µM and the “Hoechst 33342 nuclear staining score, H460” value ([1]; conc 0.1) is reported as 0. The “Hoechst 33342 nuclear staining score, H460” value ([1]; conc 0.3) was 0, the “Hoechst 33342 nuclear staining score, H460” value ([1]; conc 1) was 0 and the “Hoechst 33342 nuclear staining score, H460” value ([1]; conc 3) was 2 (strong activity comprising more than 50% of the cells). The “Hoechst 33342 nuclear staining score, HeLa” value ([1]; conc 0.1) was 0, the “Hoechst 33342 nuclear staining score, HeLa” value ([1]; conc 0.3) was 0 and the “Hoechst 33342 nuclear staining score, HeLa” value ([1]; conc 1) was 0. The “Hoechst 33342 nuclear staining score, HeLa” value ([1]; conc 3) was 0, the “Hoechst 33342 nuclear staining score, Jily” value ([1]; conc 0.1) was 0 and the “Hoechst 33342 nuclear staining score, Jily” value ([1]; conc 0.3) was 0. The “Hoechst 33342 nuclear staining score, Jily” value ([1]; conc 1) was 0, the “Hoechst 33342 nuclear staining score, Jily” value ([1]; conc 3) was 0 and the “Hoechst 33342 nuclear staining score, Jurkat” value ([1]; conc 0.1) was 0. For the same compound, the “Hoechst 33342 nuclear staining score, Jurkat” value ([1]; conc 0.3) was 0, the “Hoechst 33342 nuclear staining score, Jurkat” value ([1]; conc 1) was 0 and the “Hoechst 33342 nuclear staining score, Jurkat” value ([1]; conc 3) was 2 (strong activity comprising more than 50% of the cells). For the same compound, the “Hoechst 33342 nuclear staining score, MRC5” value ([1]; conc 0.1) was 0, the “Hoechst 33342 nuclear staining score, MRC5” value ([1]; conc 0.3) was 0 and the “Hoechst 33342 nuclear staining score, MRC5” value ([1]; conc 1) was 0. For the same compound, the “Hoechst 33342 nuclear staining score, MRC5” value ([1]; conc 3) was 0, the “Hoechst 33342 nuclear staining score, PBLs” value ([1]; conc 0.1) was 0 and the “Hoechst 33342 nuclear staining score, PBLs” value ([1]; conc 0.3) was 0. For the same compound, the “Hoechst 33342 nuclear staining score, PBLs” value ([1]; conc 1) was 0 and the “Hoechst 33342 nuclear staining score, PBLs” value ([1]; conc 3) was 0.
